According to article PMC6941357, “An in vitro toolbox to accelerate anti-malarial drug discovery and development” (Malaria Journal, 2020):
Values joined by “and” are separate entries in the source; they are usually repeats but may differ in a detail not shown here. Equal values may be shown once.

Tests used:
[1] = test system: human plasma; conditions: methods UF, ED, EP or not described per compound, ref [6]–[22] of Additional file 1; cited from earlier work
[2] = Plasma protein binding via rapid equilibrium dialysis (RED), 10% plasma; type: in vitro ADME, human; conditions: human, 10% pooled plasma (diluted 1:10), pH 7.4, RED, 10% plasma corrected for dilution; for fraction unbound at 24 h: presaturation of device and 24 h dialysis; for fraction unbound at 6 h: 6 h dialysis
Description: Pooled human plasma (n = 3–4 donors) was obtained by centrifugation of blood (collected by the Australian Red Cross Blood Service, Melbourne, Australia or the Volunteer Blood Donor Registry, Clinical Translation Centre, Walter & Eliza Hall Institute of Medical Research, Parkville, Australia), or sourcing pooled plasma directly from commercial sources (Innovative Research Inc, MI) and stored frozen at − 80 °C.
Plasma was diluted 1:10 with pH 7.4 phosphate buffer (prepared by mixing 0.1 M sodium dihydrogen phosphate and 0.1 M disodium hydrogen phosphate (both containing 0.04 M NaCl) to pH 7.4) and spiked with compound to achieve a total measured concentration of ~ 1000–3000 ng/mL. Diluted plasma was vortex mixed briefly and aliquots (n = 3–4) were transferred to RED (Thermo Fisher Scientific, Waltham, MA) units that were placed at 37 °C under ambient atmosphere on a plate shaker. […] At the end of the dialysis period, samples were removed from both the donor and dialysate chambers of the RED units. […] Fraction unbound values were calculated for each individual RED unit and the mean and SD calculated for n = 3–4 replicates.
Briefly, the RED device was exposed for two 30 min periods and one overnight period to fresh solutions of compound prepared in pH 7.4 buffer at approximately 10% of the total dialysis concentration. Following the preincubations, solutions were removed from the RED device and discarded. […] Samples were removed and analysed as described above.
For binding assessments using 10% plasma, the unbound fraction (fu) in neat plasma was calculated using the average values for Ctotal and Cunbound and Eq.

[3] = Bidirectional permeability across Caco-2 cell monolayers; conditions: human
Description: (§1) Bidirectional permeability was assessed across Caco-2 cell monolayers as described previously. Briefly, permeability experiments were performed using either aqueous transport buffer (pH 7.4 Hanks balanced salt solution containing 20 mM HEPES) or human plasma (Australian Red Cross Blood Service) in both the apical and basolateral chambers. […] The final DMSO concentration in the donor solution was 0.1% v/v.
(§2) Samples from the donor chamber were taken at the start and end of the experiment. […] Donor and acceptor samples were stored frozen at − 80 °C until analysis by LC–MS (Additional file 1: Table S2) with sample preparation as described previously. The mass balance and apparent permeability coefficient (Papp) were calculated as previously described.
(§3) Where human plasma was used as the transport medium, Papp values were calculated as shown above, with correction for the fraction unbound (fu) in the donor solution Cdonorinitial×fu with fu determined at a similar concentration to that used in the transport experiment. The apparent flux of lucifer yellow was based on an endpoint measurement assuming no lag time. The efflux ratio was calculated as the ratio of the mean B–A to A–B Papp values.

[4] = test system: Caco-2 cell monolayers; assay: as above; conditions: matrix: pH 7.4 buffer
Description: as §1, §2, §3

[5] = Binding in DMEM with 10% FCS via ultracentrifugation; type: in vitro ADME, calf; conditions: bovine, DMEM with 10% FCS, pH 7.4
Description: Dulbecco’s Modified Eagle’s Medium (DMEM) containing GlutaMAX-I was purchased from Invitrogen (Thermo Fisher Scientific) and stored at 4 °C. Medium was prepared by adding heat inactivated foetal calf serum (FCS, final 10% v/v), penicillin (final 100 U/mL), streptomycin (final 100 µg/mL) D-glucose (final 4.0 mg/mL) and sodium pyruvate (final 0.1 mg/mL).
An ultracentrifugation method adapted from a previous publication was initially used to assess plasma protein binding and binding in the other media. […] Additional ultracentrifuge tubes containing spiked matrix were maintained at 37 °C, 5% or 10% CO2 or normal atmosphere conditions, with aliquots being taken within 0.5 h of the start and at the end of ultracentrifugation to serve as controls for the assessment of stability and to obtain a measure of the total concentration (Ctotal). Following ultracentrifugation, the pH was checked and an aliquot of protein-free supernate was taken from each ultracentrifuge tube for determination of the unbound concentration (Cunbound).
Total matrix and protein free samples were analysed using a matrix matching approach whereby each sample was mixed in a 1:1 ratio with the opposite blank medium (i.e. blank total matrix or blank protein free buffer). For example, plasma samples were mixed with blank pH 7.4 buffer whereas plasma supernatant samples were mixed with blank plasma. Each of the sample sets were then assayed against a common calibration curve prepared in a 1:1 mixture of total matrix and protein free pH 7.4 buffer. […] The standard deviation for fu was calculated using the propagation of errors approach as described previously. The potential for compound degradation was assessed by comparing the average value for Ctotal at the start and end of the experiment.

[6] = Blood to plasma partitioning; type: in vitro ADME, human; conditions: 37 °C; for blood plasma ratio at 1000 ng/mL: human, whole blood, pH 7.4, human whole blood, read-out: B/P (whole blood to plasma partitioning ratio)
Description: Human whole blood was collected and supplied by the Volunteer Blood Donor Registry (Clinical Translation Centre, Walter & Eliza Hall Institute of Medical Research, Parkville, Australia) and used on the day of collection. The haematocrit (Hct) was determined by centrifugation (13,000×g for 3 min using Clemets® Microhaematocrit centrifuge and Safecap® Plain Self-sealing Mylar wrapped capillary tubes) to ensure it was between 0.40 and 0.48. An aliquot was centrifuged (Heraeus, Multifuge 3 S-R; 4500×g) for 10 min to obtain plasma required for matrix matching purposes as described below.
Two aliquots of the spiked whole blood were transferred to fresh microcentrifuge tubes and maintained at 37 °C/5% CO2 in a humidified incubator. The pH was confirmed to be 7.4 ± 0.1 at the start and end of the incubation. At each time point (30 min and 4 h), one whole blood tube was removed from the incubator and mixed by gentle inversion, after which four replicate blood samples were taken and matrix matched with an equal volume of blank plasma. The remainder of the blood sample was centrifuged (Eppendorf, Mini Spin plus; 6700×g) for 2 min for the collection of 4 replicate plasma samples which were similarly matrix matched with an equal volume of blank whole blood. The 1:1 mixtures of blood/plasma were mixed, snap frozen in dry ice and stored at − 80 °C until analysis by LC–MS (Additional file 1: Table S2) against calibration standards prepared in the same mixed matrix. Any further distribution of compound into RBCs at this stage was irrelevant as the cells were lysed during the sample preparation and the total concentration in the mixed matrix was measured for both the calibration standards and samples.
The apparent whole blood-to-plasma partitioning ratio (B/P) was calculated as the ratio of the average concentration in the blood sample to that in the plasma fraction of the same whole blood sample. A standard deviation (SD) for each B/P value was calculated using the propagation of errors approach as described previously.

[7] = Caco-2, pH 7.4, A–B Papp, matrix: pH 7.4 buffer
[8] = Caco-2, A–B Papp, matrix: human plasma, corrected for fu

For `CO[C@H]1O[C@@H]2O[C@@]3(C)CC[C@H]4[C@H](C)CC[C@@H]([C@H]1C)[C@@]24OO3` [Artemether], the Literature fu [1] is given as 0.046, the fraction unbound at 24 h [2] is given as 0.066 and the Papp B→A ([3]; Caco-2, pH 7.4) is given as 42 ± 5.6 ×10⁻⁶ cm/s. For the same compound, the Papp A→B [3, 7] was 39.1 ×10⁻⁶ cm/s and the “A–B Papp” value [4] was 46.3 10^−6 cm/s.

With `C[C@H]1[C@H](N2CCS(=O)(=O)CC2)O[C@@H]2O[C@@]3(C)CC[C@H]4[C@H](C)CC[C@@H]1[C@@]24OO3` [Artemisone] the Papp B→A ([3]; Caco-2, pH 7.4) was 47 ± 1.7 ×10⁻⁶ cm/s, the efflux ratio ([3]; Caco-2, pH 7.4) was 0.8 and the Papp A→B [3, 7] was 58.8 ×10⁻⁶ cm/s. The “A–B Papp” value [4] was 64.5 10^−6 cm/s.

Compound `C[C@H]1[C@H](OC(=O)CCC(=O)O)O[C@@H]2O[C@@]3(C)CC[C@H]4[C@H](C)CC[C@@H]1[C@@]24OO3` [Artesunate] has a fraction unbound at […], 1000 ng/mL [5] of 0.72 ± 0.026, a Papp B→A ([3]; Caco-2, pH 7.4) of 2.8 ± 0.48 ×10⁻⁶ cm/s and a Papp A→B [3, 7] of 3.4 ×10⁻⁶ cm/s. The “A–B Papp” value [4] was 2.9 10^−6 cm/s.

In the case of `O=C1C(O)=C([C@H]2CC[C@H](c3ccc(Cl)cc3)CC2)C(=O)c2ccccc21` [Atovaquone], the Literature fu [1] is listed as 0.001 and the fraction unbound at 24 h [2] is listed as less than 0.0001.

In the case of `CC[C@H]1OC(=O)[C@H](C)[C@@H](O[C@H]2C[C@@](C)(OC)[C@@H](O)[C@H](C)O2)[C@H](C)[C@@H](O[C@@H]2O[C@H](C)C[C@H](N(C)C)[C@H]2O)[C@](C)(O)C[C@@H](C)CN(C)[C@H](C)[C@@H](O)[C@]1(C)O` [Azithromycin], the Literature fu [1] is given as 0.5-0.88, the fraction unbound at 6 h [2] is given as 0.34 and the Papp B→A ([3]; Caco-2, pH 7.4) is given as 13 ± 3.9 ×10⁻⁶ cm/s. For the same compound, the “A–B Papp” value [4] was 0.37 10^−6 cm/s and 0.38 10^−6 cm/s and the “A–B Papp” value ([4]; listed as azithromycin) was < 5 10^−6 cm/s.

With `CC(C)NC(=N)NC(=N)Nc1ccc(Cl)c(Cl)c1` [Chlorproguanil] the “B/P (whole blood to plasma partitioning ratio)” value ([6]; human whole blood) was 3.3 ± 0.38, the blood plasma ratio at 1000 ng/mL [6] was greater than 3 and the Papp B→A ([3]; Caco-2) was 61 ± 7.4 ×10⁻⁶ cm/s. It also gave an efflux ratio ([3]; Caco-2) of 3.2 and a Papp A→B [3, 8] of 19 ± 3 ×10⁻⁶ cm/s.

With `CC1(C)N=C(N)N=C(N)N1c1ccc(Cl)cc1` [Cycloguanil] the fraction unbound at […], 1000 ng/mL [5] was 0.94 ± 0.064, the Papp B→A ([3]; Caco-2, pH 7.4) was 0.77 ± 0.05 ×10⁻⁶ cm/s and the “A–B Papp” value [4] was 1.2 ± 0.070 10^−6 cm/s. The “A–B Papp” value ([4]; listed as cycloguanil) was < 5 10^−6 cm/s.

With `Cc1cc(Nc2ccc(S(F)(F)(F)(F)F)cc2)n2nc(C(C)(F)F)nc2n1` [DSM265] the fraction unbound at 6 h [2] was 0.002, the fraction unbound at 24 h [2] was 0.0018 ± 0.0001 and the fraction unbound at […], 1000 ng/mL [5] was 0.366 ± 0.041. For the same compound, the Papp B→A ([3]; Caco-2, pH 7.4) was 49 ± 5.1 ×10⁻⁶ cm/s, the Papp A→B [3, 7] was 52.4 ×10⁻⁶ cm/s and the “A–B Papp” value [4] was 69.7 10^−6 cm/s.

In the case of `CCNCc1cc(Nc2ccnc3cc(Cl)ccc23)ccc1O` [Desethylamodiaquine], the Literature fu [1] is given as 0.18 and the blood plasma ratio at 1000 ng/mL [6] is given as 3.26 ± 0.35.

For `C[C@H]1[C@@H](O)O[C@@H]2O[C@@]3(C)CC[C@H]4[C@H](C)CC[C@@H]1[C@@]24OO3` [Dihydroartemisinin], the Literature fu [1] is listed as 0.092, the Papp B→A ([3]; Caco-2, pH 7.4) is listed as 49 ± 1.2 ×10⁻⁶ cm/s and the Papp A→B [3, 7] is listed as 50 ± 2.3 ×10⁻⁶ cm/s.

Compound `CCCCN(CCCC)CCC(O)c1cc2c(Cl)cc(Cl)cc2c2cc(C(F)(F)F)ccc12` (stereo not shown) [Halofantrine] has a fraction unbound at 24 h [2] of less than 0.0001.

Work on `C[C@H]1Cc2c([nH]c3cc(Cl)c(F)cc23)[C@@]2(N1)C(=O)Nc1ccc(Cl)cc12` [KAE609] yielded a fraction unbound at 6 h [2] of 0.002, a fraction unbound at 24 h [2] of 0.0016 ± 0.0001 and a blood plasma ratio at 1000 ng/mL [6] of 0.66 ± 0.04. The Papp B→A ([3]; Caco-2) was greater than 300 ×10⁻⁶ cm/s and the Papp A→B [3, 8] was greater than 300 ×10⁻⁶ cm/s.
